Test results taken from ChEMBL document CHEMBL3860091, “Synthesis and activity of newly designed aroxyalkyl or aroxyethoxyethyl derivatives of piperazine on the cardiovascular and the central nervous systems” (Bioorg Med Chem Lett, 2016).

How the values were obtained:
Rattus norvegicus [1] = species on record: Rattus norvegicus; assay: Selectivity ratio of Ki for rat brain cerebral cortex alpha2 adrenergic receptor to Ki for rat brain cerebral cortex alpha1 adrenergic receptor
Rattus norvegicus [2] = assay: Hypotensive activity in normotensive anesthetized Wistar rat assessed as systolic blood pressure at 1 mg/kg, iv measured 60 mins post dose (reference value: 107.4 to 148.3 mmHg); type: functional
Rattus norvegicus [3] = assay: Hypotensive activity in normotensive anesthetized Wistar rat assessed as diastolic blood pressure at 1 mg/kg, iv measured 10 mins post dose (reference value: 81.6 to 115.2 mmHg); type: functional
Rattus norvegicus [4] = assay: Hypotensive activity in normotensive anesthetized Wistar rat assessed as diastolic blood pressure at 1 mg/kg, iv measured 60 mins post dose (reference value: 81.6 to 115.2 mmHg); type: functional
Rattus norvegicus [5] = assay: Hypotensive activity in normotensive anesthetized Wistar rat assessed as systolic blood pressure at 1 mg/kg, iv measured 30 mins post dose (reference value: 107.4 to 148.3 mmHg); type: functional
Rattus norvegicus [6] = assay: Hypotensive activity in normotensive anesthetized Wistar rat assessed as systolic blood pressure at 1 mg/kg, iv measured 20 mins post dose (reference value: 107.4 to 148.3 mmHg); type: functional
[7] = biological target: Adrenergic receptor alpha-1 (Rattus norvegicus) (UniProt P15823+P23944+P43140); assay: Antagonist activity at alpha1 adrenergic receptor in Wistar rat aorta assessed as inhibition of naradrenaline-induced aortic contraction preincubated for 30 mins followed by naradrenaline stimulation for 3 hrs at 60 mins interval in presence of alpha2 adrenergic receptor blocker yohimbine and beta adrenergic receptor blocker propranolol
Rattus norvegicus [8] = assay: Hypotensive activity in normotensive anesthetized Wistar rat assessed as diastolic blood pressure at 1 mg/kg, iv measured 20 mins post dose (reference value: 81.6 to 115.2 mmHg); type: functional
Rattus norvegicus [9] = assay: Hypotensive activity in normotensive anesthetized Wistar rat assessed as diastolic blood pressure at 1 mg/kg, iv measured 30 mins post dose (reference value: 81.6 to 115.2 mmHg); type: functional
[10] = biological target: T1, 5-hydroxytryptamine receptor 1A (Homo sapiens, UniProt P08908); assay: Displacement of [3H]8-OH-DPAT from human recombinant 5-HT1A receptor expressed in membranes after 60 mins by microbeta scintillation counting method
T1 sequence (P08908 whole entry): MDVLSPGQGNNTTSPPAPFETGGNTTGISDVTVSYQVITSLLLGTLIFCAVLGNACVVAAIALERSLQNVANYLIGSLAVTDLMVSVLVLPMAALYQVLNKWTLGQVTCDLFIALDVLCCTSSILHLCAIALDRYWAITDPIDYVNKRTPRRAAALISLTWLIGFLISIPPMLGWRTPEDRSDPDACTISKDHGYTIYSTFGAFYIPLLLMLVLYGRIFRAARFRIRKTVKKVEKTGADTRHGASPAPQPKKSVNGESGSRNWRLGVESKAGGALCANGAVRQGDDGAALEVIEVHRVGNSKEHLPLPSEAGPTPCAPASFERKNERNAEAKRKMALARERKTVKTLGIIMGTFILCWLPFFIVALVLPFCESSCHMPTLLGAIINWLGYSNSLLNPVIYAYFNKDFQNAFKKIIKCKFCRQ

[11] = Antidepressant-like activity in albino Swiss (CD-1) mouse assessed as immobility time at 10 mg/kg, ip administered 30 mins prior to test measured for last 4 mins of 6 mins observation by forced swim test (reference value: 178.3 +/- 12.3 sec); type: functional, organism-based
Rattus norvegicus [12] = assay: Hypotensive activity in normotensive anesthetized Wistar rat assessed as systolic blood pressure at 1 mg/kg, iv measured 5 mins post dose (reference value: 107.4 to 148.3 mmHg); type: functional
[13] = biological target: T2, Adrenergic receptor alpha-1 (Rattus norvegicus, UniProt P15823+P23944+P43140); assay: Displacement of [3H]prazosin from alpha1 adrenergic receptor in rat brain cerebral cortex after 30 mins by microbeta scintillation counting method; type: tissue-based
T2 sequence (P15823 whole entry): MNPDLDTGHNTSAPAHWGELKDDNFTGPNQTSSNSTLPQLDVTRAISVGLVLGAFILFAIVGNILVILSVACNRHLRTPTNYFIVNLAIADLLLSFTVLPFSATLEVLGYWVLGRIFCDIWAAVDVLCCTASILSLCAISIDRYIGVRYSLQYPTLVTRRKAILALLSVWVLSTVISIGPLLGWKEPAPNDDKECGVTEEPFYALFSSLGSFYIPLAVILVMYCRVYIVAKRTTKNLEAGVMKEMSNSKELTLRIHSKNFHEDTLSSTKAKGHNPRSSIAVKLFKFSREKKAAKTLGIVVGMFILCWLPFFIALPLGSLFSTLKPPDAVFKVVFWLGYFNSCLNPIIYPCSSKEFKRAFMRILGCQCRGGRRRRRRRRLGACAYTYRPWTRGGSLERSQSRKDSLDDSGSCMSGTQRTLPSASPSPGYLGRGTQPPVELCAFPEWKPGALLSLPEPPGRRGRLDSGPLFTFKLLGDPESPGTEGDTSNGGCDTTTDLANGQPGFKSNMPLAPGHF
T2 sequence (P23944 whole entry): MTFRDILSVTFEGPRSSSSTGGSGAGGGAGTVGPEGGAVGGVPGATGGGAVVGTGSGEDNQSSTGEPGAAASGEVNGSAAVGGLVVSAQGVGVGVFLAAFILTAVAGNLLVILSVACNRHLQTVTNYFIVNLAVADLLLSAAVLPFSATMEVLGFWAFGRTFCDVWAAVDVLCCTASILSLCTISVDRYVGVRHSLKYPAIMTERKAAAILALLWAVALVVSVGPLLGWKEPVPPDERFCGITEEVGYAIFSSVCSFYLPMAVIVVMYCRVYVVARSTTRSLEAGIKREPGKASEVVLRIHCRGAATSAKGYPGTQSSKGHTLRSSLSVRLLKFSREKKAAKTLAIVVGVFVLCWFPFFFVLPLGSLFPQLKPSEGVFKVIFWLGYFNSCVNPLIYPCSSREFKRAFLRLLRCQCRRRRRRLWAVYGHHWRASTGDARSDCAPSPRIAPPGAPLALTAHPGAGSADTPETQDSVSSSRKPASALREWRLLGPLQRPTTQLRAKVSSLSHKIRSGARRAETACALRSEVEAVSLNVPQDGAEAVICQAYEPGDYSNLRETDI
T2 sequence (P43140 whole entry): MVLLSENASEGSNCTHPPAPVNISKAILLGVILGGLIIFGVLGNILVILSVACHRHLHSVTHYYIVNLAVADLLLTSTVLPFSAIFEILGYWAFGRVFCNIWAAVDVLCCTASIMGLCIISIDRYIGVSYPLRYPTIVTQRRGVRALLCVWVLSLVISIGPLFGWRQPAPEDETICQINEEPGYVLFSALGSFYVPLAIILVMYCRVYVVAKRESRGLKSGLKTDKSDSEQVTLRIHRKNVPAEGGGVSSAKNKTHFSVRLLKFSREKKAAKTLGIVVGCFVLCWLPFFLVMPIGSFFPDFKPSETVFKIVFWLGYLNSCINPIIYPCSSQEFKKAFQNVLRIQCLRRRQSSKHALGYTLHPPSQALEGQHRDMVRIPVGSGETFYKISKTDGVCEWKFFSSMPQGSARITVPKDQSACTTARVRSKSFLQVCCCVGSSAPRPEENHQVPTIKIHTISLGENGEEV

SMILES | Ratio Ki (Rattus norvegicus [1]) | inhibition [7] | pKb [7] | Ki [10] | Ki [13] | Activity (Rattus norvegicus [2]) | Activity (Rattus norvegicus [3]) | Activity (Rattus norvegicus [4]) | Activity (Rattus norvegicus [5]) | Activity (Rattus norvegicus [6]) | Activity (Rattus norvegicus [8]) | Activity (Rattus norvegicus [9]) | TIME [11] | Activity (Rattus norvegicus [12])
COc1ccccc1N1CCN(CCOCCOc2cccc(C)c2C)CC1.Cl.Cl | 31.3 | Dose-dependent effect | 8.76 | 5 nM | 28.5 nM | 132.6 mmHg | 106 mmHg | 104 mmHg | 131 mmHg | 130.4 mmHg | 105.4 mmHg | 105.6 mmHg | 0.0331 h | 129.8 mmHg
Cc1cccc(OCCCN2CCN(c3ccccc3)CC2)c1C.Cl.Cl | 24.6 | Dose-dependent effect | 7.97 | 5.4 nM | 33 nM | 133.3 mmHg | 112.8 mmHg | 109.7 mmHg | 135.8 mmHg | 138 mmHg | 110.8 mmHg | 109 mmHg | 0.048 h | 143.8 mmHg
Cc1cccc(OCCN2CCN(c3ccccc3)CC2)c1C.Cl.Cl | 1.82 | Dose-dependent effect | 8.75 | 12.3 nM | 159 nM | 93.4 mmHg | 75 mmHg | 67.6 mmHg | 93 mmHg | 96 mmHg | 71.8 mmHg | 67.6 mmHg | 0.0446 h | 99.8 mmHg

Compounds with a lower Ki [10], results first:

Ratio Ki (Rattus norvegicus [1]) | inhibition [7] | pKb [7] | Ki [10] | Ki [13] | SMILES | Activity (Rattus norvegicus [2]) | Activity (Rattus norvegicus [3]) | Activity (Rattus norvegicus [4]) | Activity (Rattus norvegicus [5]) | Activity (Rattus norvegicus [6]) | Activity (Rattus norvegicus [8]) | Activity (Rattus norvegicus [9]) | TIME [11] | Activity (Rattus norvegicus [12])
8.48 | Dose-dependent effect | 8.37 | 4 nM | 59.6 nM | Cc1cccc(Cl)c1OCCCCN1CCN(c2ccccc2)CC1.Cl.Cl | 120 mmHg | 102.2 mmHg | 95.2 mmHg | 123.5 mmHg | 126.2 mmHg | 98.8 mmHg | 97.7 mmHg | 0.0193 h | 129.3 mmHg
15.8 | Dose-dependent effect | 8.54 | 2 nM | 23.5 nM | COc1ccccc1N1CCN(CCCCOc2c(C)cccc2C)CC1.Cl | 124.7 mmHg | 105.2 mmHg | 103.8 mmHg | 125.5 mmHg | 124.3 mmHg | 103 mmHg | 102 mmHg | 0.0398 h | 129.5 mmHg
